Measured values taken from patent US20260125357A1, “LACTATE ENHANCING COMPOUNDS AND USES THEREOF” (GLIAPHARM SA, priority 2022, published 2026).

Tests used:
[1] = system: primary astrocytes; test: Extracellular medium acidification (SNARF5) assay in astrocytes; format: cell-based; settings: Mus musculus, Astrocyte; astrocytes in vitro; compounds 10 nM to 30 μM; read-out: Activity (EC50 class, extracellular medium acidification SNARF5)
Procedure: To assess for the effect of the compounds of the invention, those were tested in primary mouse astrocytes and astrocytes differentiated from human-derived induced pluripotent stem cells (iPSCs). Secretion of lactate was measured indirectly through the acidification of extracellular medium using extracellular pH sensor SNARE-5F-(AND-6)-CAR (SNARF5) as described below.
Primary cultures of cerebrocortical astrocytes were obtained from 1 to 2-day-old OF1 mouse pups (Charles River Laboratories). Briefly, cortices were isolated and minced in small pieces under a dissecting microscope. The cells were incubated for 30 min at 37° C. in a solution containing 20 U/ml papain, 1 mM L-cysteine and 10 kU/ml DNase I. After dissociation, papain activity was stopped by the addition of fetal calf serum (FCS). Single-cell suspension was then obtained by mechanical dissociation, which consisted in cells trituration in a DMEM D7777 medium supplemented with 44 mm NaHCO3, 10 ml/L antibiotic/antimycotic solution and 10% FCS. The cells were seeded at an average density of ˜10′000 cells/cm^2 on poly-D-lysine coated 96- or 12-well culture plates, depending on their use, and grown in DMEM D7777 medium supplemented with 44 mm NaHCO3, 10 ml/L antibiotic/antimycotic solution and 10% FCS at 37° C. in a humidified atmosphere containing 5% CO2/95% air. Culture medium was renewed twice a week. Cells were stimulated and harvested between DIV14 and DIV17, when confluence and cell growth were optimal.
Secretion of lactate was measured indirectly through the acidification of extracellular medium using extracellular pH sensor SNARF-5F-(AND-6)-CAR (SNARF5). After washing cells twice with stimulation medium (DMEM (D5030, Sigma), 1 mM […], and 5 mM Glucose, pH 7.4) at 37° C., cells were stimulated with compounds at a final concentration ranging from 10 nM to 30 μM in 50 μl per well of stimulation medium supplemented with 10 μM of SNARF5 (Life Technologies Corporation). Each compound was tested in two different plates for duplicates. After 30, 60 and 90 min stimulation, fluorescence was read at exc. (excitation) 480 nm/emm. (emission) 580 nm and at exc 480 nm/emm. 630 nm. The ratio of fluorescence between 630 nm and 580 emission values, which is proportional to extracellular pH, was calculated. In each plate, 8 wells were used for negative controls (DMSO 0.1%) and 8 wells were used for positive controls (CCCP 2 μM in DMSO). Results are shown as % of positive control effect (0% and 100% being activities of the Veh and positive control, respectively).

[2] = system: C57Bl/6J wild-type mice; test: Lactate and glucose biosensors, cerebral extracellular levels in freely moving mice; format: in vivo, mouse; settings: per os, doses 10 to 30 mg/kg, 3 hours, AUC ratio vs vehicle
Procedure: All experiments were carried out in strict accordance with the Swiss Federal Guidelines for Animal Experimentation and were approved by the Cantonal Veterinary Office for Animal Experimentation (Canton of Geneva, Switzerland). Adult male C57Bl/6J wild-type mice weighting 18-28 g (8 to 12 weeks of age) were used (Charles River Laboratories). Animals were housed in groups of 3-5 in polypropylene cages (30×40×15 cm) with wire mesh top in a temperature (22±2° C.) and humidity (55±15%) controlled environment on a 12-hour light cycle (07.00-19.00 h lights on), except after surgeries when animal were housed individually. The samples (Vehicle or compounds of the invention) were administered per os (gavage) in a solution made of water supplemented with 0.4% hydroxypropyl methylcellulose (HPMC) Methocel 4 KM (w/v) and 0.25% Tween-20 (v/v), as previously described (Thackaberry et al., 2010, Toxicol Sci., 117(2):485-92). Concentrations of the compounds tested ranged from 3 to 30 mg/kg.
Cerebral extracellular levels of L-lactate and D-glucose were monitored in vivo using lactate and glucose biosensors (Pinnacle Technology), respectively, according to the manufacturer's instructions. Cannulae were surgically implanted in the medial prefrontal cortices (coordinates: −1.0 mm (to bregma), lateral+/−1.0 mm (to mideline), ventral −1.0 mm (to dura))) of isoflurane-anesthetized mice 5 to 7 days prior experiment. After surgery, mice were monitored closely and received analgesic treatment for at least 4 days. After mice had fully recovered from surgery, compounds of the invention of vehicle were administered per os as previously described and cerebral levels of extracellular lactate and glucose were dynamically recorded for 6 hours using biosensors. Mice were administered vehicle alone first, followed 3 hours later by vehicle or Compounds of the Invention. Concentrations of cerebral extracellular lactate and glucose were calculated from the biosensor electric signals using post-calibration values. […] Area Under the Curve (AUC) of lactate and glucose concentration curves were calculated using Graphad Prism and the ratio of AUC after drug over Vehicle administration was calculated. Extracellular concentrations of lactate and glucose were measured in real time in freely moving animals for 3 hours after administration of Vehicle or compounds (1) to (4) at doses ranging from 10 to 30 mg/kg (FIG. 5).

[3] = system: Wild-type (WT) and GLUT1-DS transgenic mice; test: Grip strength test in WT and GLUT1-DS transgenic mice; format: in vivo, mouse; settings: 10 mg/kg, after rotarod session
Description: Heterozygous transgenic mice on 129/SvJ genetic background in which glucose transporter 1 (GLUT1) has been knocked down were used (GLUT1(+/−)) (Wang et al., 2016, Human Molecular Genetics, 15(7)). GLUT1-deficiency syndrome (GLUT1-DS) is a prototypic hypometabolic diseases caused by the mutation of GLUT1 and decreased levels of glucose and lactate in the brain (Tang et al., 2019, Annals of Clinical and Translational Neurology 6(9)). Mating colonies were composed of wild-type female mice and GLUT1-DS male mice, or GLUT1-DS female mice and wild-type male mice. F1 pups were genotyped after ear punching at weaning using PCR to determine genotype. Mice of 2 to 3 months of age were used.
Motor strength was measured on the grip strength test (Bioseb) after rotarod session. Wild-type (WT) and GLUT1-DS transgenic mice were placed with 4 paws on the grid and maximal grip strength was recorded over 2 sessions with 5 minutes apart. Maximal grip strength over the 2 sessions was recorded.

EC50 [1]: < 1000 nM
Structure (SMILES): COc1cc2ccnc(Nc3ccc(S(C)(=O)=O)cc3)c2cc1OC [Compound 2, 6,7-dimethoxy-N-(4-methylsulfonylphenyl)isoquinolin-1-amine]
extracellular glucose levels in the brain [2]: significantly increases extracellular glucose levels
extracellular lactate levels in the brain [2]: significantly increases extracellular lactate levels
muscle strength (grip strength) [3]: did not lead to any difference on muscle strength
